Laboratory results reported in US20260285850A1, “SUBSTITUTED OXAZOLIDINONES AND IMIDAZOLINONES AS HERBICIDES” (FMC CORPORATION, priority 2023, published 2026).

Columns and labels:
Format in all cases: in vivo
[1] = tested on: barnyardgrass (Echinochloa crus-galli); assay: Test A preemergence soil spray, visual injury rating 0-100; details: 10 days
Method in brief: (§1)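 Loam-sand pots got test material in surfactant-containing solvent, either as a directed soil spray before emergence or on plants at the one- to two-leaf stage. Visual injury (0-100) was read after ten greenhouse days.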

[2] = tested on: blackgrass (Alopecurus myosuroides); assay: as above; details: 10 days
Method in brief: as §1

corn (Zea mays) [3] = assay: as above; details: 10 days
Method in brief: as §1

[4] = tested on: green foxtail (Setaria viridis); assay: as above; details: 10 days
Method in brief: as §1

kochia (Bassia scoparia) [5] = assay: as above; details: 10 days
Method in brief: as §1

[6] = tested on: oat, wild (wild oat, Avena fatua); assay: as above; details: 10 days
Method in brief: as §1

[7] = tested on: palmer (palmer amaranth, palmer pigweed, Amaranthus palmeri); assay: as above; details: 10 days
Method in brief: as §1

[8] = tested on: ragweed (common ragweed, Ambrosia artemisiifolia); assay: as above; details: 10 days
Method in brief: as §1

[9] = tested on: ryegrass, Italian (italian ryegrass, Lolium multiflorum); assay: as above; details: 10 days
Method in brief: as §1

soybean (Glycine max) [10] = assay: as above; details: 10 days
Method in brief: as §1

[11] = tested on: wheat (Triticum aestivum); assay: as above; details: 10 days
Method in brief: as §1

[12] = tested on: barnyardgrass (Echinochloa crus-galli); assay: Test A postemergence application, visual injury rating 0-100
Method in brief: as §1

[13] = tested on: blackgrass (Alopecurus myosuroides); assay: as above
Method in brief: as §1

corn (Zea mays) [14] = assay: as above
Method in brief: as §1

[15] = tested on: green foxtail (Setaria viridis); assay: as above
Method in brief: as §1

[16] = tested on: horseweed (Erigeron canadensis); assay: as above
Method in brief: as §1

kochia (Bassia scoparia) [17] = assay: as above
Method in brief: as §1

[18] = tested on: oat, wild (wild oat, Avena fatua); assay: as above
Method in brief: as §1

[19] = tested on: palmer (palmer amaranth, palmer pigweed, Amaranthus palmeri); assay: as above
Method in brief: as §1

[20] = tested on: ragweed (common ragweed, Ambrosia artemisiifolia); assay: as above
Method in brief: as §1

[21] = tested on: ryegrass, Italian (italian ryegrass, Lolium multiflorum); assay: as above
Method in brief: as §1

soybean (Glycine max) [22] = assay: as above
Method in brief: as §1

[23] = tested on: wheat (Triticum aestivum); assay: as above
Method in brief: as §1

[24] = tested on: barnyardgrass (Echinochloa crusgalli); assay: Test B flooded paddy test, visual plant response rating 0-100; details: 250 g ai/ha, Flood, applied to paddy water, evaluated after 13 days
Method in brief: (§2)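 Visual evaluation after 13 days. Water-applied treatment, 3 cm flood depth held constant, plants at 2-leaf stage at treatment.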

[25] = tested on: ducksalad (Heteranthera limosa); assay: as above; details: 250 g ai/ha, Flood, applied to paddy water, evaluated after 13 days
Method in brief: as §2

rice (Oryza sativa) = assay: as above; details: 250 g ai/ha, Flood, applied to paddy water, evaluated after 13 days
Method in brief: as §2

[26] = tested on: sedge, umbrella (small-flower umbrella sedge, Cyperus difformis); assay: as above; details: 250 g ai/ha, Flood, applied to paddy water, evaluated after 13 days
Method in brief: as §2

[27] = 62 g ai/ha, 0 = no effect, 100 = complete control
[28] = 62 g ai/ha, postemergence, 10 days, 0 = no effect, 100 = complete control
[29] = Postemergence, 16 g ai/ha, greenhouse 10 days, 0 no effect, 100 complete control

`COC(=O)COC(=O)C1=CCC(NC(=O)C2(C)CN(c3cc(F)cc(F)c3)C(=O)O2)C1` (centres unmarked) [Compound 108] was tested, and the “Barnyardgrass plant response rating” value ([1]; 16 g ai/ha, 0 to 100 scale) was 20, the “Barnyardgrass plant response rating (0-100)” value [1, 27] was 100 and the “Blackgrass plant response rating” value ([2]; 16 g ai/ha, 0 to 100 scale) was 0. The “Blackgrass plant response rating (0-100)” value [2, 27] was 30, the “Corn plant response rating” value (corn (Zea mays) [3]; 16 g ai/ha, 0 to 100 scale) was 30 and the “Corn plant response rating (0-100)” value (corn (Zea mays) [3]; [27]) was 60. The “Foxtail, Green plant response rating” value ([4]; 16 g ai/ha, 0 to 100 scale) was 30, the “Foxtail, Green plant response rating (0-100)” value [4, 27] was 100 and the “Kochia plant response rating” value (kochia (Bassia scoparia) [5]; 16 g ai/ha, 0 to 100 scale) was 0. The “Kochia plant response rating (0-100)” value (kochia (Bassia scoparia) [5]; [27]) was 50, the “Oat, Wild plant response rating” value ([6]; 16 g ai/ha, 0 to 100 scale) was 0 and the “Oat, Wild plant response rating (0-100)” value [6, 27] was 70. For the same compound, the “Pigweed, Palmer plant response rating” value ([7]; 16 g ai/ha, 0 to 100 scale) was 30, the “Pigweed, Palmer plant response rating (0-100)” value [7, 27] was 90 and the “Ragweed plant response rating” value ([8]; 16 g ai/ha, 0 to 100 scale) was 0. For the same compound, the “Ragweed plant response rating (0-100)” value [8, 27] was 0, the “Ryegrass, Italian plant response rating” value ([9]; 16 g ai/ha, 0 to 100 scale) was 70 and the “Ryegrass, Italian plant response rating (0-100)” value [9, 27] was 90. The “Soybean plant response rating” value (soybean (Glycine max) [10]; 16 g ai/ha, 0 to 100 scale) was 0, the “Soybean plant response rating (0-100)” value (soybean (Glycine max) [10]; [27]) was 10 and the “Wheat plant response rating” value ([11]; 16 g ai/ha, 0 to 100 scale) was 90. For the same compound, the “Wheat plant response rating (0-100)” value [11, 27] was 90, the “Barnyardgrass plant response rating (0-100)” value [12, 28] was 100 and the “Barnyardgrass plant response rating (0 to 100 scale)” value [12, 29] was 90. For the same compound, the “Blackgrass plant response rating (0-100)” value [13, 28] was 90, the “Blackgrass plant response rating (0 to 100 scale)” value [13, 29] was 70 and the “Corn plant response rating (0-100)” value (corn (Zea mays) [14]; [28]) was 100. The “Corn plant response rating (0 to 100 scale)” value (corn (Zea mays) [14]; [29]) was 100, the “Foxtail, Green plant response rating (0-100)” value [15, 28] was 90 and the “Foxtail, Green plant response rating (0 to 100 scale)” value [15, 29] was 60. For the same compound, the “Horseweed plant response rating (0-100)” value [16, 28] was 70, the “Horseweed plant response rating (0 to 100 scale)” value [16, 29] was 30 and the “Kochia plant response rating (0-100)” value (kochia (Bassia scoparia) [17]; [28]) was 90. For the same compound, the “Kochia plant response rating (0 to 100 scale)” value (kochia (Bassia scoparia) [17]; [29]) was 80, the “Oat, Wild plant response rating (0-100)” value [18, 28] was 80 and the “Oat, Wild plant response rating (0 to 100 scale)” value [18, 29] was 30. For the same compound, the “Pigweed, Palmer plant response rating (0-100)” value [19, 28] was 90, the “Pigweed, Palmer plant response rating (0 to 100 scale)” value [19, 29] was 70 and the “Ragweed plant response rating (0-100)” value [20, 28] was 40. The “Ragweed plant response rating (0 to 100 scale)” value [20, 29] was 20, the “Ryegrass, Italian plant response rating (0-100)” value [21, 28] was 80 and the “Ryegrass, Italian plant response rating (0 to 100 scale)” value [21, 29] was 60. The “Soybean plant response rating (0-100)” value (soybean (Glycine max) [22]; [28]) was 70, the “Soybean plant response rating (0 to 100 scale)” value (soybean (Glycine max) [22]; [29]) was 60 and the “Wheat plant response rating (0-100)” value [23, 28] was 90. For the same compound, the “Wheat plant response rating (0 to 100 scale)” value [23, 29] was 50, the “Plant response rating, Barnyardgrass (0 to 100 scale, 0 is no effect and 100 is complete control)” value [24] was 50 and the “Plant response rating, Ducksalad (0 to 100 scale, 0 is no effect and 100 is complete control)” value [25] was 70. For the same compound, the “Plant response rating, Rice (0 to 100 scale, 0 is no effect and 100 is complete control)” value (rice (Oryza sativa)) was 85 and the “Plant response rating, Sedge, Umbrella (0 to 100 scale, 0 is no effect and 100 is complete control)” value [26] was 70.
